Source: US20130172318A1, “ANTI-INFLAMMATORY AGENTS” (priority 2010, published 2013)

system: not given; experiment: not given; conditions: not given

Molecule	melting point [°C]
O=C(N[C@H]1CCCNC1=O)c1cccc(F)c1 [Example 1, (S)-3-Fluoro-N-(2-oxopiperidin-3-yl)benzamide]	164 to 166
O=C(N[C@H]1CCCNC1=O)c1ccccc1F [Example 2, (S)-2-Fluoro-N-(2-oxopiperidin-3-yl)benzamide]	166 to 168
O=C(N[C@H]1CCCNC1=O)c1ccc(C(F)(F)F)cc1 [Example 4, (S)—N-(2-Oxopiperidin-3-yl)-4-(trifluoromethyl)benzamide]	212 to 214
O=C(N[C@H]1CCCNC1=O)c1cccc(C(F)(F)F)c1 [Example 5, (S)—N-(2-Oxopiperidin-3-yl)-3-(trifluoromethyl)benzamide]	148 to 150
O=C(N[C@H]1CCCNC1=O)c1ccccc1C(F)(F)F [Example 6, (S)—N-(2-Oxopiperidin-3-yl)-2-(trifluoromethyl)benzamide]	155 to 156
O=C(N[C@H]1CCCNC1=O)c1cccc(F)c1F [Example 7, (S)-2,3-difluoro-N-(2-oxopiperidin-3-yl)benzamide]	160 to 162
O=C(N[C@H]1CCCNC1=O)c1ccc(F)cc1F [Example 8, (S)-2,4-difluoro-N-(2-oxopiperidin-3-yl)benzamide]	140 to 141
O=C(N[C@H]1CCCNC1=O)c1cc(F)ccc1F [Example 9, (S)-2,5-difluoro-N-(2-oxopiperidin-3-yl)benzamide]	140 to 142
O=C(N[C@H]1CCCNC1=O)c1c(F)cccc1F [Example 10, (S)-2,6-difluoro-N-(2-oxopiperidin-3-yl)benzamide]	190 to 194
O=C(N[C@H]1CCCNC1=O)c1ccc(F)c(F)c1 [Example 11, (S)-3,4-difluoro-N-(2-oxopiperidin-3-yl)benzamide]	202 to 204
O=C(N[C@H]1CCCNC1=O)c1cc(F)cc(F)c1 [Example 12, (S)-3,5-difluoro-N-(2-oxopiperidin-3-yl)benzamide]	198 to 199
CCc1ccc(C(=O)N[C@H]2CCCCNC2=O)cc1 [Example 14, (S)-3-(4′-Ethylbenzoylamino)-azepan-2-one]	218 to 219
CCc1ccc(C(=O)N[C@H]2CCCNC2=O)cc1 [Example 15, (S)-3-(4′-Ethylbenzoylamino)-tetrahydropyridin-2-one]	112 to 113
CCCCc1ccc(C(=O)N[C@H]2CCCCNC2=O)cc1 [Example 16, (S)-3-(4′-Butylbenzoylamino)-azepan-2-one]	183 to 184
CCCCc1ccc(C(=O)N[C@H]2CCCNC2=O)cc1 [Example 17, (S)-3-(4′-Butylbenzoylamino)-tetrahydropyridin-2-one]	117 to 118
CCCCc1ccc(C(=O)N[C@@H]2CCCNC2=O)cc1 [Example 18, (R)-3-(4′-Butylbenzoylamino)-tetrahydropyridin-2-one]	116 to 117
CC(C)(C)c1ccc(C(=O)N[C@H]2CCCCNC2=O)cc1 [Example 19, (S)-3-(4′-tert-Butylbenzoylamino)-azepan-2-one]	204 to 205
CC(C)(C)c1ccc(C(=O)N[C@H]2CCCNC2=O)cc1 [Example 20, (S)-3-(4′-tert-Butylbenzoylamino)-tetrahydropyridin-2-one]	195 to 196
CC(C)(C)c1ccc(C(=O)N[C@@H]2CCCNC2=O)cc1 [Example 21, (R)-3-(4′-tert-Butylbenzoylamino)-tetrahydropyridin-2-one]	193 to 194
CCCCCCc1ccc(C(=O)N[C@H]2CCCCNC2=O)cc1 [Example 22, (S)-3-(4′-Hexylbenzoylamino)-azepan-2-one]	167 to 168
CCCCCCc1ccc(C(=O)N[C@H]2CCCNC2=O)cc1 [Example 23, (S)-3-(4′-Hexylbenzoylamino)-tetrahydropyridin-2-one]	118 to 119
CCCCCCc1ccc(C(=O)N[C@@H]2CCCNC2=O)cc1 [Example 24, (R)-3-(4′-Hexylbenzoylamino)-tetrahydropyridin-2-one]	117 to 118
CCCCCCCCc1ccc(C(=O)N[C@H]2CCCCNC2=O)cc1 [Example 25, (S)-3-(4′-Octylbenzoylamino)-azepan-2-one]	159 to 160
CCCCCCCCc1ccc(C(=O)N[C@H]2CCCNC2=O)cc1 [Example 26, (S)-3-(4′-Octylbenzoylamino)-tetrahydropyridin-2-one]	122 to 123
CCCCCCCCc1ccc(C(=O)N[C@@H]2CCCNC2=O)cc1 [Example 27, (R)-3-(4′-Octylbenzoylamino)-tetrahydropyridin-2-one]	122 to 123

system: chemokine-induced migration; experiment: not given; conditions: cited from earlier work

Molecule	BSCI potency/activity in words (comparative)
CCCCCCCCCC(C)(C)CC(=O)NC1CCCCNC1=O (stereo not shown) [3′3′-dimethyldodecanoyl-3-aminocaprolactam]	no more potent
CCCCCCCCCC=CC(=O)NC1CCCCNC1=O (stereo not shown) [dodec-2′,3′-enoyl-3-aminocaprolactam]	markedly lower potency
(S)-3-(undec-10-enoyl)-tetrahydropyridin-2-one	considerably reduced potency

system: not given; experiment: not given; conditions: after intravenous injection; cited from earlier work

Molecule	half-life period of clearance from blood plasma
c(DCys-DGln-DIle-DTrp-DLys-DGln-DLys-DPro-DAsp-DLeu-DCys)-NH2 [NR58-3.14.3]	less than 30 minutes

same assay, conditions: in vivo, po; cited from earlier work

Molecule	oral bioavailability
c(DCys-DGln-DIle-DTrp-DLys-DGln-DLys-DPro-DAsp-DLeu-DCys)-NH2 [NR58-3.14.3]	not orally bioavailable

system: MCP-1 induced migration of THP-1 cells; experiment: Inhibition of MCP-1 induced leukocyte migration (transwell, THP-1 cells); format: cell-based; conditions: Homo sapiens, MCP-1 25 ng/ml, 2 hours 37° C., read-out: ED50 (concentration required to reduce the MCP-1-induced migration by 50%)
Procedure: In principle, this assay consists of two chambers separated by a porous membrane. The chemoattractant is placed in the lower compartment and the cells are placed in the upper compartment. After incubation for a period at 37° C. the cells move towards the chemoattractant, and the number of cells in the lower compartment is proportional to the chemoattractant activity (relative to a series of controls).
The THP-1 cell line (European Cell culture Collection) were used as the leukocyte cell population.
The following procedure is used for testing the invention compounds for MCP-1 induced leukocyte migration:
First, the cell suspension to be placed in the upper compartment is prepared. The THP-1 cells are pelleted by centrifugation (770×g; 4 mins) and washed with Geys Balanced Salt Solution with 1 mg/ml BSA (GBSS+BSA). This wash is then repeated, and the cells repelleted before being resuspended in a small volume of GBSS+BSA for counting, for example using a standard haemocytometer.
The volume of GBSS+BSA is then adjusted depending on the number of cells present so that the cells are at final density of 4.45×10^6 cells per ml of GBSS+BSA. This ensures that there are […] THP-1 cells in each 25 μl of the solution that will be placed in the upper chamber of the plate.
To test a single compound for its ability to inhibit MCP-1 induced migration, it is necessary to prepare two lots of cells. The suspension of THP-1 cells at 4.45×10^6 cells/ml is divided into two pots. To one pot the inhibitor under test is added at an appropriate final concentration, in an appropriate vehicle (for example at 1 μM in not more than 1% DMSO). To the second pot an equal volume of GBSS+BSA plus vehicle as appropriate (e.g. not more than 1% DMSO) is added to act as a control.
Next, the chemoattractant solution to be placed in the lower compartment is prepared. MCP-1 is diluted in GBSS+BSA to give a final concentration of 25 ng/ml. This is divided into two pots, as for the cell suspension. To one pot, the test compound is added to the same final concentration as was added to the cell suspension, while to the other pot an equal volume of GBSS+BSA plus vehicle as appropriate (e.g. not more than 1% DMSO) is added.
Note that the volume of liquid that needs to be added to make the addition of the text compound needs to be taken into account, when establishing the final concentration of MCP-1 in the solution for the lower compartment and the final concentration of cells in the upper compartment.
Once the chemoattractant solutions for the lower wells and cell solutions for the upper chambers have been prepared, the migration chamber should be assembled. Place 29 μl of the appropriate chemoattractant solution into the lower well of the chamber. Assays should be performed with at least triplicate determinations of each condition. Once all the lower chambers have been filled, apply the prous membrane to the chamber in accordance with the manufacturer's instructions. Finally, apply 25 μl of the appropriate cell solution to each upper chamber. A plastic lid is placed over the entire apparatus to prevent evaporation.
The assembled chamber is incubated at 37° C., 5% CO2, for 2 hours. A suspension of cells in GBSS+BSA is also incubated under identical conditions in a tube: these cells will be used to construct a standard curve for determining the number of cells that have migrated to the lower chamber under each condition.
At the end of the incubation, the liquid cell suspension is gently removed from the upper chamber, and 20 μl of ice-cold 20 mM EDTA in PBS is added to the upper chamber, and the apparatus is incubated at 4° C. for 15 mins. This procedure causes any cells adhering to the underside of the membrane to fall into the lower chamber.
After this incubation the filter is carefully flushed with GBSS+BSA to wash off the EDTA, and then the filter is removed. […]

Molecule	EC50 [nM]
O=C(NC1CCCNC1=O)c1ccccc1 (stereo not shown) [Reference Example 1, 3-(Benzoylamino)tetrahydropyridin-2-one]	≤ 100
O=C(NC1CCCCNC1=O)c1ccccc1 (stereo not shown) [Reference Example 2, 3-(Benzoylamino)azepan-2-one]	≤ 100
Cc1ccc(C(=O)NC2CCCNC2=O)cc1 (stereo not shown) [Reference Example 3, 3-(4′-Methylbenzoylamino)tetrahydropyridin-2-one]	≤ 100
Cc1ccc(C(=O)NC2CCCCNC2=O)cc1 (stereo not shown) [Reference Example 4, 3-(4′-Methylbenzoylamino)azepan-2-one]	≤ 100
O=C(NC1CCCNC1=O)c1ccc(Cl)cc1 (stereo not shown) [Reference Example 5, 3-(4′-Chlorobenzoylamino)tetrahydropyridin-2-one]	≤ 100
O=C(NC1CCCCNC1=O)c1ccc(Cl)cc1 (stereo not shown) [Reference Example 6, 3-(4′-Chlorobenzoylamino)azepan-2-one]	≤ 100
COc1ccc(C(=O)NC2CCCNC2=O)cc1 (stereo not shown) [Reference Example 7, 3-(4′-Methoxybenzoylamino)tetrahydropyridin-2-one]	≤ 100
COc1ccc(C(=O)NC2CCCCNC2=O)cc1 (stereo not shown) [Reference Example 8, 3-(4′-Methoxybenzoylamino)azepan-2-one]	≤ 100
O=C(NC1CCCNC1=O)c1ccc(F)cc1 (stereo not shown) [Reference Example 9, 3-(4′-Fluorobenzoylamino)tetrahydropyridin-2-one]	≤ 100
O=C(NC1CCCCNC1=O)c1ccc(F)cc1 (stereo not shown) [Reference Example 10, 3-(4′-Fluorobenzoylamino)azepan-2-one]	≤ 100
Cc1cc(C)cc(C(=O)NC2CCCNC2=O)c1 (stereo not shown) [Reference Example 13, 3-(3′,5′-Dimethylbenzoylamino)tetrahydropyridin-2-one]	≤ 100
Cc1cc(C)cc(C(=O)NC2CCCCNC2=O)c1 (stereo not shown) [Reference Example 14, 3-(3′,5′-Dimethylbenzoylamino)azepan-2-one]	≤ 100

system: not given; experiment: not given; conditions: 37° C.; cited from earlier work

Molecule	time completely stable in human serum
(S)-3-(undec-10-enoyl)-tetrahydropyridin-2-one	at least 7 days
